Experimental data taken from ChEMBL document CHEMBL2429715, “Potent P-glycoprotein inhibition of emodin derivative: synthesis and biological evaluation” (Med Chem Res, 2013).

Assays:
HCT-116 = assay: Growth inhibition of human HCT116 cells at 10 uM after 48 hrs by MTT assay relative to control; type: functional; settings: HCT-116, 48 h, read-out: GI
HepG2 = assay: Growth inhibition of human HepG2 cells at 10 uM after 48 hrs by MTT assay relative to control; type: functional; settings: HepG2, 48 h, read-out: GI
K562 = assay: Growth inhibition of human K562 cells at 10 uM after 48 hrs by MTT assay relative to control; type: functional; settings: K562, 48 h, read-out: GI
[1] = Growth inhibition of human QSG7701 cells at 10 uM after 48 hrs by MTT assay relative to control; settings: read-out: GI
[2] = biological target: T1, ATP-dependent translocase ABCB1 (Homo sapiens, UniProt P08183); assay: Inhibition of P-glycoprotein in human K562/ADR cells at 10 to 20 uM after 30 mins by rhodamine 123 staining-based fluorescence assay; type: cell-based; settings: 0.5 h
[3] = biological target: T1, ATP-dependent translocase ABCB1; assay: Inhibition of P-glycoprotein in human K562/ADR cells after 30 mins by rhodamine 123 staining-based fluorescence assay; type: cell-based; settings: 0.5 h
[4] = biological target: T1, ATP-dependent translocase ABCB1; assay: Inhibition of P-glycoprotein in human K562/ADR cells at 20 to 50 uM after 30 mins by rhodamine 123 staining-based fluorescence assay; type: cell-based; settings: 0.5 h

T1 sequence (P08183 whole entry): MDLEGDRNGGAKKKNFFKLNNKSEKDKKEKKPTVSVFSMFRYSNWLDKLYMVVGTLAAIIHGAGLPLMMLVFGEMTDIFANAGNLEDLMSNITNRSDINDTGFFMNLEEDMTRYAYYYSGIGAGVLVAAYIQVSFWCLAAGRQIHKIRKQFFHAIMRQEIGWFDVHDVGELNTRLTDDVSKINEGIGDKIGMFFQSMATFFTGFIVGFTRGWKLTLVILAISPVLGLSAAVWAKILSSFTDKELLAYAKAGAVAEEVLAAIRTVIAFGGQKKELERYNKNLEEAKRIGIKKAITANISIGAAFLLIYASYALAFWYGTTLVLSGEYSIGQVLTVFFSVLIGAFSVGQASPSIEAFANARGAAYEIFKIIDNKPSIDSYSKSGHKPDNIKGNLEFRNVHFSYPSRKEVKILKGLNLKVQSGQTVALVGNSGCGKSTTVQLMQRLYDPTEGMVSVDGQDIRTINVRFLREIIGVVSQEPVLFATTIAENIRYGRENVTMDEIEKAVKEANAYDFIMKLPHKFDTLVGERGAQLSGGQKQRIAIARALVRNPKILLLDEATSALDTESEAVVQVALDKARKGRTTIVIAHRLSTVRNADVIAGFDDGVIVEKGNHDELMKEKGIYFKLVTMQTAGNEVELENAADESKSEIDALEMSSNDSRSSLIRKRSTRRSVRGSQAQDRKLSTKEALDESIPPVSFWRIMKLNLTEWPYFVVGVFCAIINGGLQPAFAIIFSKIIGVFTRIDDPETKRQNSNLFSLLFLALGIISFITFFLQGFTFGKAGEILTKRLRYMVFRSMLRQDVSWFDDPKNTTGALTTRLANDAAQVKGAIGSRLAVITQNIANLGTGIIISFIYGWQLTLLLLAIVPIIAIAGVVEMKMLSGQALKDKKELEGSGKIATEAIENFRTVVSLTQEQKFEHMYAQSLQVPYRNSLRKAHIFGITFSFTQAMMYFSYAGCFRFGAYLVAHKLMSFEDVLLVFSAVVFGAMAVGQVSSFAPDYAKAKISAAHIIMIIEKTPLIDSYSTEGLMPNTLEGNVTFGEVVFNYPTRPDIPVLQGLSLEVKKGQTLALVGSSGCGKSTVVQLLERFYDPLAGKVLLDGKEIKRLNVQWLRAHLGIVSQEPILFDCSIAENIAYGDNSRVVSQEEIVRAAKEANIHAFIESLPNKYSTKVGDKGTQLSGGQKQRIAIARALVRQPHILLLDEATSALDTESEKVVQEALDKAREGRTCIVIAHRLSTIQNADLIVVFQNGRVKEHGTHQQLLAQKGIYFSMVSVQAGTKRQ

Structure (SMILES)	inhibition of growth at 10 µM (HCT-116) [%]	inhibition of growth at 10 µM (HepG2) [%]	inhibition of growth at 10 µM (K562) [%]	inhibition at 48 h, 10 µM [1] [%]	inhibition (INH) [2]	inhibition (INH) [3]	inhibition (INH) [4]
COc1cc(OC)c2c(c1)C(=O)c1cc(CNCCCNCCCN)cc(OC)c1C2=O.Cl	15.3	5.85	0.01	0.01	Active	Dose-dependent effect	
COc1cc(OC)c2c(c1)C(=O)c1cc(CNCCCN)cc(OC)c1C2=O.Cl.Cl	31.9	0.01	0.01	5.77			Not Active
COc1cc(OC)c2c(c1)C(=O)c1cc(CNCCCCN)cc(OC)c1C2=O.Cl.Cl	27.5	0.01	0.01	0.01			Not Active
COc1cc(OC)c2c(c1)C(=O)c1cc(CNCCN)cc(OC)c1C2=O.Cl.Cl	25.4	0.01	0.01	2.55			Not Active
O=C1c2c(O)ccc(O)c2C(=O)c2c(NCCNCCO)ccc(NCCNCCO)c21 [MITOXANTRONE]	53.2	62.7	52.1	59			
COc1ccc(CCN(C)CCCC(C#N)(c2ccc(OC)c(OC)c2)C(C)C)cc1OC (stereo unspecified) [VERAPAMIL]					Active		
